Measurements published in patent publication US8153773B2, “Synthesis and use of anti-reverse phosphorothioate analogs of the messenger RNA cap” (Board of Supervisors of Louisiana State University and …, priority 2007, dated 2012).

Tests used:
[1] = biological target: T1, hDcp2 (Homo sapiens, UniProt Q8IU60); experiment: In vitro RNA decapping assay with recombinant hDcp2; format: biochemical; conditions: capped 32P-labeled short RNA, recombinant hDcp2, anion exchange HPLC (FIG. 6)
Procedure: Dcp2 activity was measured with capped 48-nt oligonucleotides as substrates, a truncated form of luciferase mRNA (48 nucleotides). GST-hDcp2 was expressed in Escherichia coli and purified as described by Z. Wang et al., “The hDcp2 protein is a mammalian mRNA decapping enzyme,” Proc. Natl. Acad. Sci. U.S.A., vol. 99, pp. 12663-12668 (2002). Capped oligonucleotides were first subjected to digestion with GST-hDcp2 at 37° C. for 2 h in decapping buffer (10 mM Tris-HCl, pH 7.5, 100 mM potassium acetate, 2 mM magnesium acetate, 0.5 mM MnCl2, 2 mM dithiothreitol, and 0.1 mM spermine). See C. Piccirillo et al., “Functional characterization of the mammalian mRNA decapping enzyme hDcp2,” RNA, vol. 9, pp. 1138-1147 (2003). The reaction mixture was then extracted once with an equal volume of phenol and twice with chloroform, and RNA was precipitated with ethanol. Products of the decapping reaction were further digested with a cocktail of ribonucleases (RiboShredder; Epicentre) at 37° C. for 1 h. The products were resolved by anion-exchange HPLC on a 4.6×250-mm Partisil 10SAX/25 column (Whatman). The gradient consisted of water for 1 min, a linear gradient to 112 mM KH2PO4, pH 4.5, for 20 min, a linear gradient of 112-450 mM KH2PO4 for 15 min, a linear gradient of 450 mM to 1.5 M KH2PO4 for 15 min, and isocratic elution at 1.5 M of KH2PO4 for 9 min, all at a flow rate 1 ml/min.
We tested oligonucleotides capped with either of S-ARCAs for hydrolysis by recombinant hDcp2 to test whether mRNA capped with the various diastereomers of m2^7,2′-OGpppsG and m2^7,2′-OGppspG would differ in their sensitivity to cleavage by Dcp1/Dcp2. See generally Z. Wang et al., “The hDcp2 protein is a mammalian mRNA decapping enzyme,” Proc. Natl. Acad. Sci. U.S.A., vol. 99, pp. 12663-12668 (2002), and Z. Wang et al., “An mRNA Stability Complex Functions with Poly(A)-Binding Protein To Stabilize mRNA In Vitro”, Mol. Cell. Biol., vol. 19, pp. 4552-4560 (1999). Cap analogs used were initially unlabeled, so to follow the products of the digestion reaction we synthesized capped oligonucleotides in the presence of [α-^32P]GTP and a DNA template in which G was the first ribonucleotide specified after the promoter. The oligonucleotides capped with either of the S-ARCAs were subjected to Dcp2 digestion in vitro, after which the products were further digested with a cocktail of ribonucleases (RiboShredder from Epicenter). Any nucleotide on the 5′ side of a G residue acquired a ^32P-labeled 3′-phosphate group after ribonuclease digestion by nearest-neighbor transfer. Anion exchange chromatography was then used to resolve the labeled 3′-nucleoside monophosphates (3′-NMP*), at internal positions in the RNA, from labeled 5′-terminal products (FIG. 6). The latter comprise p3 Gp* derived from uncapped transcripts and m2^7,2′-OGp3 Gp* (when m2^7,2′-OGp3G was used), or pGp* resulting from capped RNA resistant or nonresistant to enzymatic cleavage, respectively. All cap analogs used were ARCAs, which ensured that they were incorporated into RNA exclusively in the correct orientation. This further guaranteed that only one 5′-terminal product (m2^7,2′-OGp3 Gp*) was observed upon ribonuclease treatment. Uncapped RNA is not a substrate for Dcp2, which explains why p3 Gp* product was observed after Dcp2 digestion.
See E. Grudzien et al., “Differential inhibition of mRNA degradation pathways by novel cap analogs,” J. Biol. Chem., vol. 281, pp. 1857-1867 (2006).

[2] = biological target: T1, hDcp2; conditions: Grudzien et al. 2006; cited from earlier work
[3] = biological target: T2, DcpS (Caenorhabditis elegans, UniProt G5EFS4); experiment: Enzymatic hydrolysis by C. elegans DcpS; format: biochemical; design: key: the analogs assigned as resistant remained completely undigested under the applied conditions; the analogs assigned as hydrolyzed were hydrolyzed by DcpS with efficiency comparable to the respective unmodified parent compound; conditions: conditions giving complete degradation of unmodified parent within 40-90 min, RP HPLC
T2 sequence (G5EFS4 1-311): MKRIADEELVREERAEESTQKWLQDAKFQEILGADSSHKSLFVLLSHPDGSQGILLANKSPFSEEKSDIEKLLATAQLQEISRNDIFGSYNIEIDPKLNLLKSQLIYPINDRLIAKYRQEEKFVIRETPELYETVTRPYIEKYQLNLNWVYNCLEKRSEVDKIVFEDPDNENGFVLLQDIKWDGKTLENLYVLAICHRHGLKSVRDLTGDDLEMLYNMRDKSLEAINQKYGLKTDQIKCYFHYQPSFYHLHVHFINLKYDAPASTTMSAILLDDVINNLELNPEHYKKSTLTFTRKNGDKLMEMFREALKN
Procedure: (§1) Human and nematode DcpS were expressed in Escherichia coli according to the procedures described previously (L. S. Cohen et al., “Nematode m7 GpppG and m3(2,2,7)GpppG decapping: activities in Ascaris embryos and characterization of C. elegans scavenger DcpS,” RNA, vol. 10, pp. 1609-1624 (2004)). Both proteins were stored at −80° C. in 20 mM Tris buffer, pH 7.5, containing 50 mM KCl, 0.2 mM EDTA, 1 mM DTT, 0.5 mM PMSF, and 20% glycerol. An appropriate cap analog at 1 mM concentration was treated with 5.0 or 7.0 μl of DcpS (from human or C. elegans, respectively) in 500 μl of 50 mM TRIS buffer, pH=7.9, containing 20 mM of MgCl2 and 60 mM of (NH4)2SO4 at 37° C. for 60-90 min. Every 15-20 min a 100 μl sample was collected from the reaction mixture and deactivated by incubation in 90° C. for 3 min. Collected samples were analyzed without further treatment by analytical RP HPLC using a linear gradient of methanol in 0.1 M KH2PO4, pH=6.0, from 0-50% within 15 min and UV-detection at 260 nm.
(§2) The new series of S-analogs were subjected to in vitro enzymatic hydrolysis catalyzed by DcpS from both human and C. elegans sources. In all experiments, the corresponding unmodified cap analog was used as a positive control, i.e., m^7GpppG for non-ARCA S-analogs and m2^7,2′-OGpppG for S-ARCAs. The amount of DcpS enzyme was optimized to provide complete degradation of the control substrate within 40-90 min. The samples collected from reaction mixtures at various time intervals were analyzed by RP HPLC (as described in Materials and Methods).
(§3) In Table 4, cap analogs at 4 μM concentration were subjected to enzymatic digestion by DcpS in conditions leading to complete degradation of the unmodified parent compound (i.e. m^7GpppG for non-ARCA S-analogs and m2^7,2′-OGpppG for ARCAs) within 40-90 min. Samples collected from reaction mixtures at various time intervals were analysed by RP HPLC with UV detection at 260 nm as described in Materials and Methods. […] The result was unchanged even if the reaction time was extended to 24 h, various amounts of enzyme were used, and composition of the reaction buffer was modified.

[4] = biological target: T3, murine eIF4E (28-217) (Mus musculus, UniProt P63073); experiment: Binding affinities for eIF4E by fluorescence quenching; conditions: murine eIF4E (28-217)
T3 construct: (28-217) to phosphorothioate cap analogs, as determined
Procedure: Binding affinities of S analogs for murine eIF4E were determined by fluorescence quenching. Fluorescence titration measurements were carried out on an LS-50B spectrofluorometer (Perkin Elmer Co.) in 50 mM HEPES/KOH (pH 7.2), 100 mM KCl, 0.5 mM EDTA, 1 mM DTT at 20.0±0.2° C. Aliquots of 1 μl increasing concentration of cap analogue solutions were added to 1.4 ml of […] solutions. Fluorescence intensities (excitation at 280 nm with 2.5 nm bandwidth and detection at 337 nm with 4 nm bandwidth and 290 nm cut-off filter) were corrected taking into account sample dilution and the inner filter effect. Equilibrium association constants (KAS) were determined by fitting the theoretical dependence of the fluorescence intensity on the total concentration of cap analogue to the experimental data points according to equation described previously (See A. Niedzwiecka et al., “Biophysical studies of eIF4E cap-binding protein: recognition of mRNA 5′ cap structure and synthetic fragments of eIF4G and 4E-BP1 proteins,” J. Mol. Biol., vol. 319, pp. 615-635 (2002)). The concentration of protein was fitted as a free parameter of equilibrium equation showing amount of “active” protein. The final KAS was calculated as a weighted average of three to ten independent titrations, with the weights taken as the reciprocals of the numerical standard deviations squared. Numerical nonlinear least-squares regression analysis was performed using ORGIN 6.0 (Microcal Software Inc., USA). The Gibbs free energy of binding was calculated from the KAS value according to the standard equation ΔG°=−RTlnKAS.

[5] = biological target: T4, DcpS (Homo sapiens, UniProt Q96C86); experiment: Enzymatic hydrolysis by human DcpS; format: biochemical; design: key: the analogs assigned as resistant remained completely undigested under the applied conditions; the analogs assigned as hydrolyzed were hydrolyzed by DcpS with efficiency comparable to the respective unmodified parent compound; conditions: conditions giving complete degradation of unmodified parent within 40-90 min, RP HPLC
T4 sequence (Q96C86 1-337): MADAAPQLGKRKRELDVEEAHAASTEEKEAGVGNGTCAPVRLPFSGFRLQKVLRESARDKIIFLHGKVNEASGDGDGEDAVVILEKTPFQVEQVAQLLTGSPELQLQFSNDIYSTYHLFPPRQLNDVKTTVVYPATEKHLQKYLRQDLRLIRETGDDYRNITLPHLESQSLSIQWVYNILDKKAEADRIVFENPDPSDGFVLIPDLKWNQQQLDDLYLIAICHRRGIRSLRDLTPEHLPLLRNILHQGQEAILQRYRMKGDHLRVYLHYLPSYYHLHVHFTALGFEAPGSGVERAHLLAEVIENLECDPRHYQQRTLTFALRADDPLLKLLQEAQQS
Procedure: as §1, §2, §3

[6] = tested on: HC11 cells; experiment: Translational efficiency of capped luciferase mRNA in HC11 cells; format: cell-based, mouse; conditions: Luc-A60 mRNA capped with the analog in HC11 cells, relative to m^7Gp3G-capped mRNA
Procedure: Two methods, electroporation and nucleoporation, were used to deliver RNA into cells. In case of electroporation, 5 μg of RNA were introduced into 10^7 HC11 cells in a total volume 400 μl of serum-reduced RPMI 1640 medium in a Gene pulser cuvette (4 mm gap) with a Bio-Rad Genepulser™ set at 0.22 kV and 960 μF. Following discharge, the cells were washed twice with PBS, centrifuged for 2 min 300×g at room temperature, resuspended in prewarmed complete medium, and placed at 37° C. Nucleoporation was performed with an Amaxa Nucleofector II (Amaxa Biosystems) in accordance with manufacture's recommendations. One microgram of RNA was introduced into 10^6 HC11 cells with Nucleofector Solution V and the set of recommended regimens (program T-024).
For measurement of translational efficiency, cells were divided into several Eppendorf tubes, placed in a water bath at 37° C., and shaken. For measurement of mRNA stability, cells were distributed into 35-mm cell culture dishes and placed at 37° C. in a 5% CO2 humidified atmosphere. Cells were harvested at various times and washed twice with PBS.
For cytoplasmic RNA extraction, 2×10^5 cells were lysed in 175 μl of lysis buffer (50 mM Tris-HCl, pH 8.0, 140 mM NaCl, 1.5 mM MgCl2, 0.5% (v/v) Igepal (Sigma), and 1 mM dithiothreitol). RNAs were further purified using the RNeasy mini kit. For protein extraction, 2×10^5 cells were lysed in 200 μl of Luciferase Cell Culture Lysis Reagent (Promega). Luciferase activity of cell extracts was measured according to the manufacturer's protocol (Promega).
We also determined the translational efficiency in cultured cells for luciferase mRNA capped with S-ARCAs. This involved two measurements conducted at various times following nucleoporation—luciferase activity measured by luminometry in cleared cell lysates, and Luc-A60 levels measured by real-time PCR. Luciferase activity was normalized by the amount of luciferase mRNA that had been delivered into cells. To determine the amount of RNA present in the cells at a time immediately after nucleoporation, i.e., before any decay had occurred, cells were harvested at various times between 2 to 8 h post-nucleoporation, and cytoplasmic RNA was extracted. The amount of luciferase mRNA was measured by real time PCR using primers that amplify sequences near the 5′-end. Luciferase mRNA remaining at each time point was plotted as log10 ([RNA]) versus time to determine t1/2. The curve was extrapolated to 0 h, and the amount of RNA delivered into the cells was calculated. We defined conditions under which the accumulation of luciferase was linear with time, after an initial lag period of ˜30 min for recruitment of mRNA to ribosomes, completing the first polypeptide chain, and release of luciferase into the cytosol.

T3 sequence (P63073 28-217): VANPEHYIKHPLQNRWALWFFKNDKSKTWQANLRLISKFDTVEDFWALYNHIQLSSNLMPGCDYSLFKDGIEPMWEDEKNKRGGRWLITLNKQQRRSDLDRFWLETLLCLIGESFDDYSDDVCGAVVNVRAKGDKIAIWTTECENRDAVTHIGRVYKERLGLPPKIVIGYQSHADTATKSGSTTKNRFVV

| SMILES | hydrolysis of capped oligonucleotide by hDcp2 [1] | hydrolysis of capped mRNA by recombinant human Dcp2 in vitro [2] | Resistance to enzymatic hydrolysis by DcpS (from C. elegans) [3] | ΔG° ([4]; binding free energy calculated from KAS) | KAS ([4]; equilibrium association constant, fluorescence quenching) | Resistance to enzymatic hydrolysis by DcpS (human) [5] | Relative translational efficiency [6] |
| --- | --- | --- | --- | --- | --- | --- | --- |
| CO[C@H]1[C@@H](O)[C@H](n2c[n+](C)c3c(=O)[nH]c(N)nc32)O[C@@H]1COP(=O)(O)OP(=O)(O)CP(=O)(O)OC[C@H]1O[C@@H](n2cnc3c(=O)[nH]c(N)nc32)[C@H](O)[C@@H]1O [m2^7,3′-OGppCH2pG, reference compound] | resistant | resistant to hydrolysis | – | – | – | – | – |
| Cn1c[n+]([C@@H]2O[C@H](COP(=O)(O)OP(=O)([O-])OP(=O)(O)OC[C@H]3O[C@@H](n4cnc5c(=O)[nH]c(N)nc54)[C@H](O)[C@@H]3O)[C@@H](O)[C@H]2O)c2nc(N)[nH]c(=O)c21 [m^7GpppG, reference compound] | – | – | hydrolyzed | -9.35 ± 0.02 kcal/mol | 9.4 ± 0.4 µM⁻¹ | hydrolyzed | 1.00 |
